Laboratory results from US20090036422A1 (priority 2007, published 2009).
Counter-ions that a name gives are not always drawn.

The compounds below were run against T1, human orexin-2 (hOX2) receptor (Homo sapiens, UniProt O43614) (assay: Intracellular Ca2+ mobilization assay (FLIPR), CHO(dHFr-) cells expressing hOX2, orexin-A at EC80 as agonist). Conditions: Kb=IC50/(1+[A]/EC50); CHO(dHFr-)-OX2R cells, antagonist applied 25 min before orexin-A EC80.
T1 construct: expressed in transfected cells
T1 sequence (O43614 1-444): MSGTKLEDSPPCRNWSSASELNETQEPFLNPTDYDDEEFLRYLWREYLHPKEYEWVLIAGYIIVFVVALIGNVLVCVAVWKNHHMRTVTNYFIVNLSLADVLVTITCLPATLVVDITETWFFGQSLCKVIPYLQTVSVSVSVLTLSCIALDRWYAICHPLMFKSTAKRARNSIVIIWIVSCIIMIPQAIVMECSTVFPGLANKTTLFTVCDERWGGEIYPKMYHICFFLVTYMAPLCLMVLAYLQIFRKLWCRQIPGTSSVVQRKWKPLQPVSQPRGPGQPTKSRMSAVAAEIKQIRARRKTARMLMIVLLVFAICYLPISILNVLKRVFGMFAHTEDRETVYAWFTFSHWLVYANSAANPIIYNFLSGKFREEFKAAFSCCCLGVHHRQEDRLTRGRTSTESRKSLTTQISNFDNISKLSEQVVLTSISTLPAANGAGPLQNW
Type: cell-based
Procedure: Intracellular Ca^2+ Mobilization Assay
The Chinese Hamster Ovary (dHFr−) mutant cell line stably expressing human orexin-1 (hOX1) or human orexin-2 (hOX2) receptors were maintained in Dulbecco's Modified Eagle Medium (1×) with GlutaMax™ 1, 4500 mg/L D-Glucose and Sodium Pyruvate (Catalog No. 31966-021, Invitrogen, Carlsbad, Calif.), 5% dialyzed fetal calf serum (Catalog No. 26400-044), 100 μg/ml penicillin and 100 μg/ml streptomycin. The cells were seeded at 5×10^4 cells/well in the poly-D-lysine treated, 96-well, black/clear-bottomed plates (Catalog No. BD356640, BD Biosciences, Palo Alto, Calif.). 24 h later, the cells were loaded for 1 h at 37° C. with 4 μM Flou-4 acetoxymethyl ester (Catalog No. F-14202, Molecular Probes, Eugene, Oreg.) in FLIPR buffer (1×HBSS, 20 mM HEPES, 2.5 mM Probenecid). Hanks' Balanced Salt Solution (HBSS) (10×) (catalog No. 14065-049) and HEPES (1M) (catalog No. 15630-056) were purchased from Invitrogen, Carlsbad, Calif. Probenecid (250 mM) (catalog No. P8761) was from Sigma, Buchs, Switzerland. The cells were washed five times with FLIPR buffer to remove excess dye and intracellular calcium mobilization, [Ca^2+]i were measured using a Fluorometric Imaging Plate Reader (FLIPR-96, Molecular Devices, Menlo Park, Calif.) as described previously (Malherbe et al., Mol. Pharmacol., 64, 823-832, 2003). Orexin A (catalog No. 1455, Toris Cookson Ltd, Bristol, UK) was used as agonist. Orexin A (50 mM stock solution in DMSO) was diluted in FLIPR buffer +0.1% BSA. The EC50 and EC80 values of orexin-A were measured daily from standard agonist concentration-response curves in CHO(dHFr−) —OX1R and —OX2R cell lines. All compounds were dissolved in 100% DMSO. Inhibition curves were determined by addition of 11 concentrations (0.0001-10 μM) of inhibitory compounds and using EC80 value of orexin-A as agonist (a concentration which gave 80% of max agonist response, determined daily). The antagonists were applied 25 min (incubation at 37° C.) before the application of the agonist. Responses were measured as peak increase in fluorescence minus basal, normalized to the maximal stimulatory effect induced by EC80 value of orexin-A or orexin-B. Inhibition curves were fitted according to the Hill equation: y=100/(1+(x/IC50)^nH), where nH=slope factor using Excel-fit 4 software (Microsoft).
Kb values were calculated according to the following equation Kb=IC50/(1+[A]/EC50) where A is the concentration of agonist added which is very close to agonist EC80 value, and IC50 and EC50 values were derived from the antagonist inhibition and orexin-A or B agonist curves, respectively.

Kb [µM] | Compound
0.0555 | Cc1ccc(N(CCc2ccc(C(F)(F)F)cc2)C(=O)C(=O)c2ccccc2)cc1C [Example 218, N-(3,4-Dimethyl-phenyl)-2-oxo-2-phenyl-N-[2-(4-trifluoromethyl-phenyl)-ethyl]-acetamide]
0.0148 | Cc1ccc(N(CCc2ccc(Cl)cc2F)C(=O)[C@@H](N)c2ccccc2)cc1C [Example 192, (S)-2-Amino-N-[2-(4-chloro-2-fluoro-phenyl)-ethyl]-N-(3,4-dimethyl-phenyl)-2-phenyl-acetamide; hydrochloride]
0.0171 | Cc1ccc(N(CCc2ccc(C(F)(F)F)cc2F)C(=O)[C@@H](N)c2ccccc2)cc1C [Example 196, (S)-2-Amino-N-(3,4-dimethyl-phenyl)-N-[2-(2-fluoro-4-trifluoromethyl-phenyl)-ethyl]-2-phenyl-acetamide hydrochloride]
0.0829 | Cc1ccc(N(CCc2ccc(Cl)cc2Cl)C(=O)[C@@H](N)c2ccccc2)cc1C [Example 205, (S)-2-Amino-N-[2-(2,4-dichloro-phenyl)-ethyl]-N-(3,4-dimethyl-phenyl)-2-phenyl-acetamide hydrochloride]
0.0269 | Cc1ccc(N(CCc2ccc(F)cc2F)C(=O)[C@@H](N)c2ccccc2)cc1C [Example 188, (S)-2-Amino-N-[2-(2,4-difluoro-phenyl)-ethyl]-N-(3,4-dimethyl-phenyl)-2-phenyl-acetamide hydrochloride]
0.036 | Cc1ccc(N(CCc2ccccc2F)C(=O)[C@@H](N)c2ccccc2)cc1C [Example 180, (S)-2-Amino-N-(3,4-dimethyl-phenyl)-N-[2-(2-fluoro-phenyl)-ethyl]-2-phenyl-acetamide hydrochloride]

Further lines, the compound ahead of its results:

Compound | Kb [µM]
Cc1ccc(CCN(C(=O)C(NC(C)CO)c2ccccc2)c2ccc(C)c(C)c2)cc1 (stereo not shown) [Example 122, N-(3,4-Dimethyl-phenyl)-2-(2-hydroxy-1-methyl-ethylamino)-2-phenyl-N-(2-p-tolyl-ethyl)-acetamide] | 0.0225
COc1ccc(N(CCc2ccc(C(F)(F)F)cc2)C(=O)C(N)c2ccccc2OC)cc1F (stereo not shown) [Example 42] | 0.0559
COc1ccc(N(CCc2ccc(C(F)(F)F)cc2)C(=O)C(N)c2ccccc2OC)cc1Cl (stereo not shown) [Example 43, 2-Amino-N-(3-chloro-4-methoxy-phenyl)-2-(2-methoxy-phenyl)-N-[2-(4-trifluoromethyl-phenyl)-ethyl]-acetamide] | 0.0162
COc1ccc(N(CCc2ccc(C(F)(F)F)cc2)C(=O)C(N)c2ccc(Cl)cc2)cc1OC (stereo not shown) [Example 62] | 0.0751
COc1cccc(N(CCc2ccc(C(F)(F)F)cc2)C(=O)C(N)c2ccccc2OC)c1 (stereo not shown) [Example 38, 2-Amino-2-(2-methoxy-phenyl)-N-(3-methoxy-phenyl)-N-[2-(4-trifluoromethyl-phenyl)-ethyl]-acetamide] | 0.0577
COc1ccccc1C(N)C(=O)N(CCc1ccc(C(F)(F)F)cc1)c1ccc2c(c1)OCO2 (stereo not shown) [Example 41] | 0.0505
CC(=O)NCCNC(C(=O)N(CCc1ccc(C)cc1)c1ccc(C)c(C)c1)c1ccccc1 (stereo not shown) [Example 126, 2-(2-Acetylamino-ethylamino)-N-(3,4-dimethyl-phenyl)-2-phenyl-N-(2-p-tolyl-ethyl)-acetamide] | 0.0086
COc1ccc(N(CCc2ccc(C(F)(F)F)cc2)C(=O)C(O)c2ccc(F)cc2)cc1OC (stereo not shown) [Example 26, N-(3,4-dimethoxyphenyl)-2-(4-fluorophenyl)-2-hydroxy-N-{2-[4-(trifluoromethyl)phenyl]ethyl}acetamide] | 0.0592
NC(C(=O)N(CCc1ccc(C(F)(F)F)cc1)c1cccc(OC(F)F)c1)c1ccccc1 (stereo not shown) [Example 107, 2-Amino-N-(3-difluoromethoxy-phenyl)-2-phenyl-N-[2-(4-trifluoromethyl-phenyl)-ethyl]-acetamide] | 0.0509
CNC(C(=O)N(CCc1ccc(C(F)(F)F)cc1)c1ccc(OC)c(OC)c1)c1ccccc1OC (stereo not shown) [Example 34, N-(3,4-Dimethoxy-phenyl)-2-(2-methoxy-phenyl)-2-methylamino-N-[2-(4-trifluoromethyl-phenyl)-ethyl]-acetamide] | 0.027
